# From the supplement of paper PMC8372320
# Assay: photocatalytic hydrogen evolution rate (per 5 mg catalyst); higher = more photocatalytic H2 evolution; extreme values may be limits of the assay
# Details: catalyst mass (mg): 5; Pt cocatalyst (wt%): 3; sacrificial medium: triethylamine/methanol/water 1:1:1
# 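Further: aromatic molecules in triethylamine/methanol/water with Pt photoreduced in situ, irradiated 3 h under a 1 sun AM 1.5G solar simulator (350–1000 nm), H2 quantified by headspace gas chromatography; listed molecule itself used as the photocatalyst at 5 mg per vial.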
row,SMILES,photocatalytic hydrogen evolution rate
1,Cc1ccc(N)cc1C#N,0 µmol/h
2,C=Cc1ccc2c(=C(C#N)C#N)c3ccccc3c(=C(C#N)C#N)c2c1,0 µmol/h
3,O=c1oc(=O)c2cc3c(=O)oc(=O)c3cc12,0 µmol/h
4,Oc1cccc2cccnc12,0 µmol/h
5,O=Cc1ccc(O)c(F)c1,0.0382 µmol/h
6,O=C1Nc2c(Br)cc(Br)cc2C1=O,0.874 µmol/h
7,O=[N+]([O-])c1ccc(C(=C(c2ccc([N+](=O)[O-])cc2)c2ccc([N+](=O)[O-])cc2)c2ccc([N+](=O)[O-])cc2)cc1,0 µmol/h
8,c1csc(-c2ccc(N(c3ccc(-c4cccs4)cc3)c3ccc(-c4cccs4)cc3)cc2)c1,0 µmol/h
9,O=C1C(F)=C(F)C(=O)C(F)=C1F,0 µmol/h
10,O=C1c2cccc([N+](=O)[O-])c2C(=O)c2c1cccc2[N+](=O)[O-],0 µmol/h
11,N#Cc1ccc(O)cc1,0 µmol/h
12,N#Cc1cncc(C=O)c1,0.0889 µmol/h
13,COc1cc(C=O)cc(OC)c1O,0 µmol/h
14,CC(=O)c1c(O)cccc1O,0 µmol/h
15,O=Cc1ccc(-c2cncnc2)cc1,2.58 µmol/h
16,c1ccc(-c2ccccn2)nc1,0 µmol/h
17,N#Cc1cccc(F)c1F,0 µmol/h
18,Fc1c(F)c(F)c(B(c2c(F)c(F)c(F)c(F)c2F)c2c(F)c(F)c(F)c(F)c2F)c(F)c1F,0.0455 µmol/h
19,O=S1(=O)c2ccccc2-c2ccccc21,0.222 µmol/h
20,FC(F)(F)c1cc(Br)ccc1Br,0 µmol/h
21,Brc1ccc(OCC2CCCCO2)c(Br)c1 (stereo not given),0 µmol/h
22,c1ccc(-c2ccc(-c3ccc(-c4ccc(-c5ccccc5)cc4)cc3)cc2)cc1,0 µmol/h
23,c1ccc(-c2ccccc2-c2ccccc2)cc1,0 µmol/h
24,O=c1c2ccccc2c2cc3c(=O)c4ccccc4c3cc12,0 µmol/h
25,N#Cc1cc(N)c(N)cc1C#N,0 µmol/h

row,SMILES,photocatalytic hydrogen evolution rate
1,Cc1c(C2(c3cc(Br)c(O)c(Br)c3C)OS(=O)(=O)c3ccccc32)cc(Br)c(O)c1Br,0 µmol/h
2,O=Cc1sc(Br)nc1Br,0 µmol/h
3,N#Cc1cccc(-c2cccc(C=O)c2)c1,1.09 µmol/h
4,N#Cc1cc(Br)ccn1,0 µmol/h
5,O=Cc1cc(O)c(O)cc1O,0 µmol/h
6,Nc1ccc(S(=O)(=O)c2ccc(N)cc2)cc1,0.00797 µmol/h
7,Cc1cc(-c2ccc(N)c(C)c2)ccc1N,0 µmol/h
8,O=Cc1cccc2cccnc12,1.45 µmol/h
9,CCOC(=O)c1ccc(C(=O)OCC)nc1,0.0237 µmol/h
10,Cc1ccc(Nc2ccc(C)cc2)cc1,0.074 µmol/h
11,N#Cc1ccc(Br)cn1,0 µmol/h
12,O=Cc1ccc2c(c1)c1ccccc1n2Cc1ccccc1,2.52 µmol/h
13,Brc1ccc2ccc3cccc4ccc1c2c34,0.369 µmol/h
14,O=Cc1ccc(N(c2ccc(C=O)cc2)c2ccc(C=O)cc2)cc1,1.46 µmol/h
15,Cc1cc(C)cc([N+](=O)[O-])c1,0 µmol/h
16,Fc1c(F)c(F)c(-c2c(F)c(F)c(F)c(F)c2F)c(F)c1F,0 µmol/h
17,O=C(n1ccnc1)n1ccnc1,0 µmol/h
18,Brc1cc(Br)cc(-c2ccccc2)c1,0 µmol/h
19,c1ccc(N(c2ccccc2)c2ccccc2)cc1,0 µmol/h
20,c1ccc(-c2ccccc2)cc1,0 µmol/h
21,O=Cc1cc(O)cc(F)c1,0 µmol/h
22,O=Cc1c2ccccc2c(C=O)c2ccccc12,2.97 µmol/h
23,O=Cc1cc(O)c(C=O)cc1O,0 µmol/h
24,O=Cc1ccc(N2CCCCC2)cc1,0.431 µmol/h
25,O=Cc1cccc(-c2c(O)ccc3ccccc23)c1,0.0122 µmol/h
